Results reported in patent US11827704B2, “Antibody molecules to PD-1 and uses thereof” (Novartis AG, priority 2014, dated 2023).
Read-outs that look alike come from different tables or passages of the source.

Experiments:
[1] = test system: PD-L1 (CD274) surface expression in EBC-1 cells; assay: Flow cytometry of PD-L1 surface expression in EBC-1 cells in vitro; assay type: cell-based, human; details: EBC-1 cells (NSCLC with cMET amplification); 10 nM, 100 nM, 1000 nM for 24, 48 and 72 hours; FIG. 15
Method: PD-L1 (CD274) expression was analyzed in cancer cell lines treated with Compound A17. Cells were obtained from ATCC and cultured in vitro following ATCC directions. The cell lines used were previously characterized by the Cancer Cell Line Encyclopedia Project (broadinstitute.org/ccle/home).
Cells plated in six-well culture plates were treated with the Compound A17 at different concentrations (10 nM, 100 nM, and 1000 nM) for 24, 48 and 72 hours. Equal amount of vehicle (DMSO) was used as a control. Cells were washed with PBS and then harvested using a cell scraper.
For each reaction, 0.5-1×10^6 cells were stained with 20 μL of anti-human monoclonal PD-L1-PE antibody, clone M1H1 (BD) for 30-60 minutes at 4° C. Cells were washed twice and data was acquired using a Canto II with FACSDiva software (BD Bioscience). Data analysis was performed using FlowJo software (Tree Star). Mean fluorescence intensity (MFI) was determined by gating on single cells. Unstained cells were used as a gating control.

[2] = test system: PD-L1 (CD274) mRNA in Hs.746.T tumor; assay: TaqMan RT PCR of PD-L1 mRNA in Hs.746.T tumor xenograft; assay type: in vivo, human; details: Hs.746.T tumor (gastric cancer cell with cMET amplification & mutation) xenograft; FIG. 16
[3] = test system: PD-L1 (CD274) mRNA in UKE-1 tumors; assay: TaqMan RT PCR of PD-L1 mRNA in UKE-1 tumor xenograft model; assay type: in vivo, human; details: tumor xenograft model bearing UKE-1 (MPN line with JAK2V617F mutation); FIG. 20
[4] = test system: PD-L1 (CD274) mRNA in H3122 cells; assay: TaqMan RT PCR of PD-L1 mRNA in H3122 cells in vitro; assay type: cell-based, human; details: H3122 (NSCLC with ALK translocation) in vitro; FIG. 17
Method: (§1) TaqMan RT PCR assays were developed to detect changes of expression levels of PD-L1 (CD274) in cell lines and xenograft tumors. mRNA was isolated from frozen cell pellets or tumor fragments using the Qiagen RNeasy Mini kit. Isolated RNA was frozen at −80° C. RNA quality was checked and RNA was quantified using a 2100 Agilent Bioanalyzer following the protocol for the Agilent RNA 6000 Nano Kit. cDNA was prepared using a High Capacity RNA- to cDNA Kit (Applied Biosystems).
(§2) Real-time PCR reactions were carried out in 20 μl total volume, including 10 μl of Universal PCR master mix (Applied Biosystems), 1 μl of human PD-L1 (CD274) probe/primer set (Applied Biosystems), and 8 μl of cDNA. Each sample was run in triplicate. The amount of cDNA produced from 25-50 ng of RNA in the reverse transcription reaction was used in each PCR reaction. Due to difference in mRNA levels between PD-L1 and GAPDH, the two real-time PCR reactions were done in separate tubes using same amount of cDNA. The real-time PCR reaction was run on the C1000 Thermal Cycle (BioRad) with the cycle program as follows: a 10 minute incubation at 95° C. followed by 40 cycles of 95° C. for 15 seconds and 60° C. for 1 minute. After the reaction was complete, the PD-L1 average Ct was normalized relative to each Ct value from the GAPDH reference reaction. Each normalized logarithmic value was then converted into a linear value.

[5] = test system: PD-L1 (CD274) mRNA in LOXIMV1 tumors; assay: TaqMan RT PCR of PD-L1 mRNA in LOXIMV1 tumor xenograft model; assay type: in vivo, human; details: tumor xenograft model bearing LOXIMV1 (BRAF mutant melanoma); FIG. 18
Method: as §1, §2

[6] = test system: PD-L1 (CD274) mRNA in HEYA8 tumors; assay: TaqMan RT PCR of PD-L1 mRNA in HEYA8 tumor xenograft model; assay type: in vivo, human; details: tumor xenograft model bearing HEYA8 (KRAS mutant ovarian cancer); FIG. 19
Method: as §1, §2

CD8^+ T cells = assay: Proliferation of CD8+ T cells activated with CMV peptides; assay type: cell-based; details: percentages of CD8+ cells that passed through at least n cell divisions (n=2, 4, 6)
IFN-γ expression = assay type: cell-based

CNC(=O)c1ccc(-c2cnc3ncc(Cc4ccc5ncccc5c4)n3n2)cc1F [Compound A17, 2-fluoro-N-methyl-4-(7-(quinolin-6-ylmethyl)imidazo[1,2-b][1,2,4]triazin-2-yl)benzamide]
surface expression of PD-L1 (flow cytometry) [1]: significant downregulation | PD-L1 expression (mRNA) [2]: Inhibition

N#CC[C@H](C1CCCC1)n1cc(-c2ncnc3[nH]ccc23)cn1 [Compound A18, Ruxolitinib Phosphate]
PD-L1 mRNA [3]: Downregulation

Cc1cc(Nc2ncc(Cl)c(Nc3ccccc3S(=O)(=O)C(C)C)n2)c(OC(C)C)cc1C1CCNCC1 [Compound A23, ceritinib]
PD-L1 mRNA [4]: Inhibition

COC(=O)N[C@@H](C)CNc1nccc(-c2cn(C(C)C)nc2-c2cc(Cl)cc(NS(C)(=O)=O)c2F)n1 [Compound A29, Encorafenib]
PD-L1 mRNA [5]: Downregulation

Cn1cnc2c(F)c(Nc3ccc(Br)cc3F)c(C(=O)NOCCO)cc21 [Compound A34, Binimetinib]
PD-L1 mRNA [6]: Downregulation

B1: BAP049: murine anti-PD-1 monoclonal antibody; sequences in Table 1 (antibody, V domains shown)
VH: QVQLQQSGSELVRPGASVKLSCKASGYTFTTYWMHWVRQRPGQGLEWIGNIYPGTGGSNFDEKFKNRTSLTVDTSSTTAYMHLASLTSEDSAVYYCTRWTTGTGAYWGQGTLVTVSA
VL: DIVMTQSPSSLTVTAGEKVTMSCKSSQSLLDSGNQKNFLTWYQQKPGQPPKLLIFWASTRESGVPDRFTGSGSVTDFTLTISSVQAEDLAVYYCQNDYSYPCTFGGGTKLEIK
proliferation of CD8+ T cells activated with CMV peptides (CD8^+ T cells): increase proliferation | fold increase in IFN-γ expression (IFN-γ expression): 2.8±0.8 fold | fold increase in IFN-γ expression (IFN-γ expression; cells stimulated with Staphylococcal enterotoxin B (SEB) (3 μg/mL)): 2.5±2.0 fold
